Source: patent US6096293A, “Antiplaque oral composition and method” (priority 1999, dated 2000)

Key:
[1] = test system: B. typhosus and Staph. aureus; conditions: v. B. typhosus and Staph. aureus; Suter 1941; cited from earlier work
[2] = test system: A. viscosus, A. naeslundii, S. mutans and S. sanguis; conditions: Evans 1977; cited from earlier work
A. viscosus [3] = experiment: Minimum Inhibitory Concentration (MIC), neat AA solutions in ethanol; type: cell-based; conditions: for MIC: neat solution in 98.5% ethanol
Source text: (§1) The smaller the MIC, the greater the antibacterial activity of the AA being tested. This MIC test is also described in U.S. Pat. No. 5,275,805 at column 11, lines 54-68, which description is herewith incorporated herein.

S. mutans [4] = experiment: as above; type: cell-based; conditions: for MIC: neat solution in 98.5% ethanol
Source text: as §1

S. sanguis [5] = experiment: as above; type: cell-based; conditions: for MIC: neat solution in 98.5% ethanol
Source text: as §1

bacteria [6] = experiment: Antimicrobial activity in general (comparison with thymol / triclosan, effect of substitution); type: cell-based
bacteria [7] = conditions: background statement; cited from earlier work
A. viscosus [8] = conditions: Evans 1977; cited from earlier work
A. naeslundii = conditions: Evans 1977; cited from earlier work
S. mutans [9] = conditions: Evans 1977; cited from earlier work
S. sanguis [10] = conditions: Evans 1977; cited from earlier work

Row | Molecule | phenol coefficient [1] | inhibition of in vitro growth or plaque formation [2] | MIC (A. viscosus [3]) | MIC (S. mutans [4]) | MIC (S. sanguis [5]) | also measured
1 | CCC(C)c1ccc(O)cc1 (centres unmarked) [p-sec-butyl phenol] | 28 |  |  |  |  | 
2 | phenylphenol |  | did not inhibit in vitro growth or plaque formation |  |  |  | 
3 | CCC(C)c1ccccc1O (centres unmarked) [o-sec-butyl phenol] | 28 |  |  |  |  | 
4 | CC(C)(C)c1ccc(O)c(C(C)(C)C)c1 [2,4-di-t-butylphenol] |  |  | 1.95 ppm | 0.98 ppm | 1.95 ppm | activity relative to triclosan (A. viscosus [3]; MIC test of Example 5): somewhat less active than triclosan; activity relative to triclosan (S. mutans [4]; MIC test of Example 5): significantly superior to triclosan; activity relative to triclosan (S. sanguis [5]; MIC test of Example 5): somewhat less active than triclosan; activity relative to thymol (bacteria [6]; MIC test of Example 5, A. viscosus, S. sanguis, S. mutans): many times superior to thymol
5 | Cc1ccc(C(C)C)c(O)c1 [Thymol, 2-isopropyl-5-methylphenol] |  | did not inhibit in vitro growth or plaque formation | 15.60 ppm | 31.25 ppm | 15.60 ppm | antimicrobial activity relative to triclosan (background) (bacteria [7]): only a small fraction of the activity of triclosan
6 | O=S(=O)([O-])c1ccc(O)cc1.O=S(=O)([O-])c1ccc(O)cc1.[Zn+2] [zinc phenolsulfonate] |  | did not inhibit in vitro growth or plaque formation |  |  |  | 
7 | tert.butylphenol | about 20 |  |  |  |  | 
8 | Oc1cc(Cl)ccc1Oc1ccc(Cl)cc1Cl [Triclosan] |  |  | 0.50 ppm | 1.95 ppm | 0.98 ppm | activity compared to thymol (bacteria [6]; AA's of the Tables, "10 to 100 or more times"): ~100 times
9 | O=C(C(=O)c1cc(Br)ccc1O)c1cc(Br)ccc1O [Dibromsalicil] |  |  |  |  |  | effect on growth and plaque formation (A. viscosus [8]): effective against A. viscosus
10 | O=C(Nc1ccc(Br)cc1)c1cc(Br)cc(Br)c1O [3,5,4'-tribromo-salicylanilide] |  |  |  |  |  | effect on growth and plaque formation (A. viscosus [8]): effective against growth and plaque formation; effect on growth and plaque formation (A. naeslundii): effective against growth and plaque formation; effect on growth and plaque formation (S. mutans [9]): effective against growth and plaque formation; effect on growth and plaque formation (S. sanguis [10]): effective against growth and plaque formation
